In patent US20240199542A1, “SUBSTITUTED PYRROLIDIN-2-ONES, SALTS THEREOF AND THEIR USE AS HERBICIDALLY ACTIVE SUBSTANCES” (Bayer Aktiengesellschaft, priority 2021, published 2024):

Key:
Type in all cases: in vivo
[1] = tested on: Digitaria sanguinalis (DIGSA); assay: Herbicidal post-emergence action; settings: 320 g/ha, assessed after ca. 3 weeks
Summary of the method: (§1)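 Seeds were sown in sandy loam and grown under controlled greenhouse conditions. At the single-leaf stage (2 to 3 weeks), green parts were sprayed with the aqueous formulated compound (0.5% additive, 600 l water/ha, 1280 or 320 g/ha). About 3 weeks later, effect was rated visually in percent against untreated plants.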

[2] = tested on: Alopecurus myosuroides (ALOMY); assay: Herbicidal post-emergence action; settings: assessed after ca. 3 weeks
Summary of the method: as §1

Avena fatua (AVEFA) [3] = assay: Herbicidal post-emergence action; settings: assessed after ca. 3 weeks
Summary of the method: as §1

[4] = tested on: Echinochloa crus-galli (ECHCG); assay: Herbicidal post-emergence action; settings: assessed after ca. 3 weeks
Summary of the method: as §1

[5] = tested on: Digitaria sanguinalis (DIGSA); assay: Herbicidal pre-emergence action; settings: 320 g/ha, graded after ca. 3 weeks
Summary of the method: (§2)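 Seeds sown in sandy loam and covered with soil; WP or EC formulations sprayed pre-emergence onto soil surface as aqueous suspension/emulsion with 0.5% additive at 600 l water/ha, rates up to 1280 g/ha. Greenhouse growth; damage scored visually after ca. 3 weeks versus untreated controls (0% = control, 100% = dead).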

Setaria viridis (SETVI) [6] = assay: Herbicidal pre-emergence action; settings: graded after ca. 3 weeks
Summary of the method: as §2

[7] = tested on: Lolium multiflorum (LOLMU); assay: Herbicidal pre-emergence action; settings: 1280 g/ha, graded after ca. 3 weeks
Summary of the method: as §2

Viola tricolor (VIOTR) = assay: Herbicidal pre-emergence action; settings: 320 g/ha, graded after ca. 3 weeks
Summary of the method: as §2

[8] = tested on: Alopecurus myosuroides (ALOMY); assay: Herbicidal pre-emergence action; settings: graded after ca. 3 weeks
Summary of the method: as §2

Avena fatua (AVEFA) [9] = assay: Herbicidal pre-emergence action; settings: graded after ca. 3 weeks
Summary of the method: as §2

Lolium rigidum (LOLRI) = assay: Herbicidal pre-emergence action; settings: 320 g/ha, graded after ca. 3 weeks
Summary of the method: as §2

[10] = tested on: Polygonum convolvulus (POLCO); assay: Herbicidal pre-emergence action; settings: graded after ca. 3 weeks
Summary of the method: as §2

[11] = tested on: Echinochloa crus-galli (ECHCG); assay: Herbicidal pre-emergence action; settings: graded after ca. 3 weeks
Summary of the method: as §2

Zea Mays (ZEAMX) [12] = assay: Pre-emergence effects on crop plants; settings: crop plant
Description: (§3) Seeds of mono- and dicotyledonous weed plants and crop plants were sown, in plastic or organic planting pots, in sandy loam and covered with soil. The compounds according to the invention, formulated in the form of wettable powders (WP) or as emulsifiable concentrates (EC), were applied to the surface of the covering soil as aqueous suspension or emulsion, with the addition of 0.5% of an additive, at an application rate of 600 1 of water/ha (converted).
(§4) Following treatment, the pots were placed in a greenhouse and kept under optimum growth conditions for the test plants. The visual grading of the damage to the test plants was carried out after ca. 3 weeks in comparison to untreated controls (herbicidal effect in percent (%): 100% effect=plants have died off, 0% effect=as control plants).
(§5) Tables C1 to C3 below show the effects of selected compounds of the general formula (I) according to table 1 on various crop plants and an application rate corresponding to 320 g/ha or below obtained by the experimental procedure mentioned above in biology section A.

Brassica napus (BRSNW) [13] = assay: Pre-emergence effects on crop plants; settings: 320 g/ha, crop plant
Description: as §3, §4, §5

Glycine max (GLXMA) [14] = assay: Pre-emergence effects on crop plants; settings: crop plant
Description: as §3, §4, §5

Zea Mays (ZEAMX) [15] = assay: Post-emergence effects on crop plants; settings: crop plant
Description: (§6) Seeds of mono- and dicotyledonous weed plants and crop plants were sown, in plastic or organic planting pots, in sandy loam, covered with soil and grown in a greenhouse under controlled growth conditions. 2 to 3 weeks after sowing, the test plants were sprayed in the single-leaf stage. The compounds according to the invention, formulated in form of wettable powders (WP) or as emulsifiable concentrates (EC), were sprayed onto the green plant parts as aqueous suspension or emulsion, with the addition of 0.5% of an additive, at an application rate of 600 1 of water/ha (converted). The test plants were placed in the greenhouse for ca. 3 weeks under optimum growth conditions, and then the effect of the preparations was assessed visually in comparison with untreated controls (herbicidal effect in percent (%): 100% effect=plants have died off, 0% effect=as control plants).
(§7) Tables D1 to D3 below show the effects of selected compounds of the general formula (I) according to table 1 on various crop plants and an application rate corresponding to 320 g/ha or below obtained by the experimental procedure mentioned above in biology section B.

Brassica napus (BRSNW) [16] = assay: Post-emergence effects on crop plants; settings: application rate 320 g/ha, crop plant Brassica napus (BRSNW)
Description: as §6, §7

Glycine max (GLXMA) [17] = assay: Post-emergence effects on crop plants; settings: crop plant
Description: as §6, §7

[18] = tested on: Lolium multiflorum (LOLMU); assay: Herbicidal post-emergence action; settings: assessed after ca. 3 weeks
Summary of the method: as §1

Setaria viridis (SETVI) [19] = assay: Herbicidal post-emergence action; settings: 1280 g/ha, assessed after ca. 3 weeks
Summary of the method: as §1

[20] = tested on: Cyperus esculentus (CYPES); assay: Herbicidal pre-emergence action; settings: 1280 g/ha, graded after ca. 3 weeks
Summary of the method: as §2

[21] = tested on: Cyperus esculentus (CYPES); assay: Herbicidal post-emergence action; settings: 1280 g/ha, assessed after ca. 3 weeks
Summary of the method: as §1

[22] = tested on: Polygonum convolvulus (POLCO); assay: Herbicidal post-emergence action; settings: 1280 g/ha, assessed after ca. 3 weeks
Summary of the method: as §1

Veronica persica (VERPE) = assay: Herbicidal pre-emergence action; settings: 1280 g/ha, graded after ca. 3 weeks
Summary of the method: as §2

SMILES	Post-emergence activity against DIGSA [1]	Post-emergence activity against ALOMY ([2]; 1280 g/ha)	Post-emergence activity against AVEFA (Avena fatua (AVEFA) [3]; 1280 g/ha)	Post-emergence activity against ECHCG ([4]; 1280 g/ha)	Pre-emergence activity against DIGSA [5]	Pre-emergence activity against SETVI (Setaria viridis (SETVI) [6]; 1280 g/ha)	Pre-emergence activity against LOLMU [7]	Pre-emergence activity against ALOMY ([8]; 1280 g/ha)	Pre-emergence activity against AVEFA (Avena fatua (AVEFA) [9]; 1280 g/ha)	Pre-emergence activity against LOLRI (Lolium rigidum (LOLRI))	Pre-emergence activity against ECHCG ([11]; 1280 g/ha)	pre-emergence activity against BRSNW (crop damage) (Brassica napus (BRSNW) [13])	post-emergence activity against ZEAMX (crop damage) (Zea Mays (ZEAMX) [15]; 320 g/ha)	post-emergence activity against BRSNW (Brassica napus (BRSNW) [16])	post-emergence activity against GLXMA (crop damage) (Glycine max (GLXMA) [17]; 320 g/ha)	Pre-emergence activity against AVEFA (Avena fatua (AVEFA) [9]; 320 g/ha)	pre-emergence activity against GLXMA (crop damage) (Glycine max (GLXMA) [14]; 320 g/ha)	Post-emergence activity against SETVI (Setaria viridis (SETVI) [19])	Post-emergence activity against LOLMU ([18]; 1280 g/ha)	Post-emergence activity against CYPES [21]	also measured
O=C(O)C1CCCN1C(=O)CC1CCC(=O)N1Cc1cccc(F)c1F (racemic) [Example I-013]	80%	80%	80%	80%	90%	90%	90%	90%	100%	80%	90%	0%	0%	0%	0%						Pre-emergence activity against VIOTR (Viola tricolor (VIOTR)): 90%; Pre-emergence activity against POLCO ([10]; 1280 g/ha): 90%; pre-emergence activity against ZEAMX (crop damage) (Zea Mays (ZEAMX) [12]; 320 g/ha): 0%; pre-emergence activity against GLXMA (crop damage) (Glycine max (GLXMA) [14]; 80 g/ha): 0%
Cn1ncnc1NC(=O)CC1CCC(=O)N1Cc1cccc(F)c1F (racemic) [Example I-002]	80%				80%							0%	0%	0%		100%	0%				Post-emergence activity against LOLMU ([18]; 320 g/ha): 80%; Post-emergence activity against ALOMY ([2]; 320 g/ha): 80%; Post-emergence activity against AVEFA (Avena fatua (AVEFA) [3]; 320 g/ha): 80%; Post-emergence activity against ECHCG ([4]; 320 g/ha): 90%; Pre-emergence activity against ALOMY ([8]; 320 g/ha): 100%; post-emergence activity against ZEAMX (crop damage) (Zea Mays (ZEAMX) [15]; 80 g/ha): 0%; post-emergence activity against GLXMA (crop damage) (Glycine max (GLXMA) [17]; 80 g/ha): 0%
CS(=O)(=O)CCOC(=O)CC1CCC(=O)N1Cc1cccc(F)c1F (racemic) [Example I-009]	80%	80%	90%	100%	90%	80%	80%	90%	100%	80%	90%	0%		20%	0%			80%	90%		Pre-emergence activity against CYPES [20]: 80%; Pre-emergence activity against VIOTR (Viola tricolor (VIOTR)): 100%; Pre-emergence activity against POLCO ([10]; 320 g/ha): 80%; pre-emergence activity against GLXMA (crop damage) (Glycine max (GLXMA) [14]; 80 g/ha): 20%
COC(=O)c1ccccc1NC(=O)CC1CCC(=O)N1Cc1cccc(F)c1F (racemic) [Example I-080]					80%							0%	0%	0%	0%	80%	0%				Pre-emergence activity against SETVI (Setaria viridis (SETVI) [6]; 320 g/ha): 90%; pre-emergence activity against ZEAMX (crop damage) (Zea Mays (ZEAMX) [12]; 320 g/ha): 0%
CC[C@H](C)[C@H](NC(=O)CC1CCC(=O)N1Cc1cccc(F)c1F)C(=O)O (single isomer, unassigned) [Example I-005]		90%	90%	100%			80%	90%	100%		80%							90%	90%	90%	Post-emergence activity against POLCO [22]: 80%; Pre-emergence activity against POLCO ([10]; 1280 g/ha): 80%
CC(C)CNC(=O)CC1CCC(=O)N1Cc1cccc(F)c1F (racemic) [Example I-056]								80%												80%	Pre-emergence activity against VERPE (Veronica persica (VERPE)): 100%
CS(=O)(=O)NC(=O)CC1CCC(=O)N1Cc1cccc(F)c1F (racemic) [Example I-012]		80%	90%	90%		90%	90%	90%	90%		80%							90%	90%	80%	Pre-emergence activity against CYPES [20]: 80%
Cn1ncnc1NC(=O)CC1CCC(=O)N1Cc1cccc(F)c1F (single isomer, unassigned) [Example I-075]			100%									0%	0%	0%	0%	90%	0%				pre-emergence activity against ZEAMX (crop damage) (Zea Mays (ZEAMX) [12]; 320 g/ha): 0%
COCC(=O)CC(=O)CNC(=O)CC1CCC(=O)N1Cc1cccc(F)c1F (racemic) [Example I-006]		90%	100%	100%			90%	90%	100%		90%							80%	80%	80%	Pre-emergence activity against CYPES [20]: 90%; Pre-emergence activity against POLCO ([10]; 1280 g/ha): 90%
O=C(O)CC1CCC(=O)N1Cc1cc(F)cc(F)c1F (racemic) [Example I-201]	90%				90%					80%					0%	100%	0%				Post-emergence activity against ALOMY ([2]; 320 g/ha): 90%; Post-emergence activity against AVEFA (Avena fatua (AVEFA) [3]; 320 g/ha): 100%; Post-emergence activity against ECHCG ([4]; 320 g/ha): 90%; Pre-emergence activity against SETVI (Setaria viridis (SETVI) [6]; 320 g/ha): 100%; Pre-emergence activity against ALOMY ([8]; 320 g/ha): 100%; Pre-emergence activity against ECHCG ([11]; 320 g/ha): 100%; pre-emergence activity against ZEAMX (crop damage) (Zea Mays (ZEAMX) [12]; 80 g/ha): 0%; post-emergence activity against ZEAMX (crop damage) (Zea Mays (ZEAMX) [15]; 80 g/ha): 0%
